# Measurements published in PMC11258614 (2024).
# Where a SMILES comes first, the peptide text is derived from it.
# How the values were obtained:
# [1] = test system: human c-Myc promoter G4 (DNA, G4) TGAGGGTGGGTAGGGTGGGTAA; assay: UV melting at 295 nm; conditions: 30 mM sodium cacodylate pH 7.4, 0.5 mM EDTA, 4 μM DNA, DNA:peptide 1:50, derived from two Tm
# [2] = test system: human c-Myc promoter G4 (DNA, G4) TGAGGGTGGGTAGGGTGGGTAA; assay: fluorescence titration of peptide with G4; conditions: 30 mM sodium cacodylate pH 7.4, 0.5 mM EDTA, 25 °C, printed Ka in μM, Ka or Kd ambiguous
smiles,measurement,setting,value
CC(C)C[C@H](NC(=O)[C@@H](N)CC(N)=O)C(=O)N[C@@H](CCC(=O)O)C(=O)N[C@@H](CCCCN)C(=O)N[C@@H](CCCCN)C(=O)N[C@@H](CCCCN)C(=O)N1CCC[C@H]1C(=O)NCC(=O)O (H-NLEKKKPG-OH),ΔTm,[1]; 100 mM K+,0.9 °C
same,ΔTm,[1]; 100 mM Na+,3.7 °C
same,Ka,[2]; 100 mM K+,0.1277 ± 0.073 µM
same,Ka,[2]; 100 mM Na+,0.1369 ± 0.008 µM
